Test results as given in ChEMBL document CHEMBL4483862, “Open-source discovery of chemical leads for next-generation chemoprotective antimalarials” (2018).

Test system: Plasmodium berghei
Test: Luciferase/luciferin-expressing antifolate-resistant parasites were used to infect a culture of HepG2 cells that were pre-incubated with compounds. Infected hepatocytes emit light due to the luciferase reaction. Assay results are presented as the percent inhibition of light emission compared to control. […]
Format: functional
Conditions: sporozoite; for IC90: read-out: LUCIFERASE INFECTION ASSAY - IC90
[1] = read-out: LUCIFERASE INFECTION ASSAY - IC50

SMILES	IC50 [1]	IC90	further results
O=C(CSCCCN1CCN(c2cccc(Cl)c2)CC1)N/N=C/c1ccccc1	> 7.66 µM	> 7.66 µM	–
CC(C(=O)Nc1cccc(C#N)c1)N1CCN(c2ncccn2)CC1 (centres undefined)	> 10 µM	> 10 µM	–
CC(C)Cc1nc2oc3c(NCCN(C)C)ncnc3c2c2c1COC(C)(C)C2	–	> 8.3 µM	IC50 (PBLUC_HILL_SLOPE 11.6, PBLUC_R_SQUARED 0.0696, read-out: LUCIFERASE INFECTION ASSAY - IC50): 7.66 µM
CNc1nc(-c2cccnc2)nc2sc(-c3ccccc3)cc12	–	> 10 µM	IC50 (PBLUC_HILL_SLOPE 3.26, PBLUC_R_SQUARED 0.654, read-out: LUCIFERASE INFECTION ASSAY - IC50): 6.22 µM
CC(C)c1ccc(-n2c(Sc3ccc(C(F)(F)F)cc3[N+](=O)[O-])nnc2-c2ccc(C(C)(C)C)cc2)cc1	–	> 6.1 µM	IC50 (PBLUC_HILL_SLOPE 12.8, PBLUC_R_SQUARED 0.26, read-out: LUCIFERASE INFECTION ASSAY - IC50): 5.26 µM
Cc1ccc(CN(C)C(=O)CSc2nnc(-c3ccc(C(C)(C)C)cc3)o2)c(C)c1	> 10 µM	> 10 µM	–
CCc1cccc2c(C(=O)COC(=O)/C(C#N)=C/c3ccc(OC)cc3)c[nH]c12	–	> 10 µM	IC50 (HEPG2TOX_HILL_SLOPE 1.4, HEPG2TOX_R_SQUARED 0.562, read-out: LUCIFERASE INFECTION ASSAY - IC50): > 10 µM
COc1cccc(C(=O)OCC(=O)c2c[nH]c3ccccc23)c1O	> 10 µM	> 10 µM	–
O=c1c(Cl)c(Cl)cnn1-c1ccc(S(=O)(=O)NCCCOCC2CC2)cc1	–	4.65 µM	IC50 (HEPG2TOX_HILL_SLOPE 15.7, HEPG2TOX_R_SQUARED 0.58, PBLUC_HILL_SLOPE 8.81, PBLUC_R_SQUARED 0.0863, read-out: LUCIFERASE INFECTION ASSAY - IC50): 3.62 µM
COc1cccc(C(O)c2nc(C(=O)Nc3ccc(OCc4ccccc4)cc3)cs2)c1 (centres undefined)	–	4.39 µM	IC50 (HEPG2TOX_HILL_SLOPE 0.759, HEPG2TOX_R_SQUARED 0.957, PBLUC_HILL_SLOPE 2.06, PBLUC_R_SQUARED 0.859, read-out: LUCIFERASE INFECTION ASSAY - IC50): 1.51 µM
CCOC(=O)N1CCC(N/C=C(\C#N)S(=O)(=O)c2ccc(Cl)cc2)CC1	–	3.29 µM	IC50 (PBLUC_HILL_SLOPE 8.69, PBLUC_R_SQUARED 0.709, read-out: LUCIFERASE INFECTION ASSAY - IC50): 2.55 µM
COc1ccc(C2CCCN2Cc2ccc(C(N)=O)cc2)c(OC)c1 (centres undefined)	> 10 µM	> 10 µM	–
Cc1nc2ccc(N/N=C3\C=CC(=O)c4ncccc43)cc2s1	–	4.05 µM	IC50 (HEPG2TOX_HILL_SLOPE 2.99, HEPG2TOX_R_SQUARED 0.974, PBLUC_HILL_SLOPE 13.8, PBLUC_R_SQUARED 0.408, read-out: LUCIFERASE INFECTION ASSAY - IC50): 3.46 µM
O=C(CCc1c(-c2ccc(F)cc2)[nH]c2ccc(F)cc12)NCCN1CCOCC1	–	> 10 µM	IC50 (HEPG2TOX_HILL_SLOPE 0.681, HEPG2TOX_R_SQUARED 0.0413, read-out: LUCIFERASE INFECTION ASSAY - IC50): > 10 µM
O=C(Cn1ncc(Cl)c(Cl)c1=O)NCCC(c1ccccc1)c1ccccc1	5.37 µM	7.67 µM	–
CC(C)COc1ccc(NC(=O)c2ccnn2C)cc1Cl	–	> 10 µM	IC50 (PBLUC_HILL_SLOPE 14.7, PBLUC_R_SQUARED 0.488, read-out: LUCIFERASE INFECTION ASSAY - IC50): 9.12 µM
COc1ccc(-c2nonc2NC(=O)c2oc3cc(C)ccc3c2C)cc1OC	–	3.11 µM	IC50 (HEPG2TOX_HILL_SLOPE 1.8, HEPG2TOX_R_SQUARED 0.881, PBLUC_HILL_SLOPE 18.6, PBLUC_R_SQUARED 0.206, read-out: LUCIFERASE INFECTION ASSAY - IC50): 2.77 µM
CCC(C)(C)c1ccc(Oc2ccc(NC(=O)COC(=O)C3=COCCO3)cc2)cc1	–	> 10 µM	IC50 (PBLUC_HILL_SLOPE 2.38, PBLUC_R_SQUARED 0.497, read-out: LUCIFERASE INFECTION ASSAY - IC50): 5.8 µM
CCCn1c(NC(=O)CCN(c2ccc(C)cc2)S(=O)(=O)c2ccc(C)cc2)nc2ccccc21	> 10 µM	> 10 µM	–
CCn1c(=O)n(Cc2cc(Cl)c3c(c2)OCO3)c2ccccc21	> 10 µM	> 10 µM	–
CCNc1cc(C(=O)Nc2ccccc2)ncn1	0.963 µM	> 13.6 µM	–

SMILES	IC50 [1]	IC90	further results
CN(C)c1ccc(-c2cc3c(cn2)nc(NCc2ccccc2F)n3C)cc1	–	> 10 µM	IC50 (HEPG2TOX_HILL_SLOPE 12.8, HEPG2TOX_R_SQUARED 0.633, PBLUC_HILL_SLOPE 3.52, PBLUC_R_SQUARED 0.567, read-out: LUCIFERASE INFECTION ASSAY - IC50): 5.77 µM
O=C(Nc1ccc(-c2csc(N3CCOCC3)n2)cc1)c1ccc(Br)c([N+](=O)[O-])c1	> 10 µM	> 10 µM	–
O=C1C(=O)N(CCN2CCCCC2)c2ccc(F)cc21	> 11.9 µM	> 11.9 µM	–
CC(NC(=O)COC(=O)c1cc(O)c2ccccc2c1O)C1CC2CCC1C2 (centres undefined)	> 10 µM	> 10 µM	–
Cc1cccc(CN2CCC3(CC2)C(=O)N(Cc2ccccn2)C(=O)N3CCc2ccccc2)c1	–	> 7.04 µM	IC50 (HEPG2TOX_HILL_SLOPE 1.55, HEPG2TOX_R_SQUARED 0.857, PBLUC_HILL_SLOPE 4.1, PBLUC_R_SQUARED 0.48, read-out: LUCIFERASE INFECTION ASSAY - IC50): 5.65 µM
CN(C)c1cccc(-c2cnc3cnc(-c4ccc(CO)cc4)cn23)c1	–	> 9.58 µM	IC50 (PBLUC_HILL_SLOPE 3.53, PBLUC_R_SQUARED 0.408, read-out: LUCIFERASE INFECTION ASSAY - IC50): 6.91 µM
CCN1/C(=C\C(=O)c2ccccc2Oc2ccccc2)C(C)(C)c2c1ccc1ccccc21	–	8.43 µM	IC50 (HEPG2TOX_HILL_SLOPE 8.78, HEPG2TOX_R_SQUARED 0.227, PBLUC_HILL_SLOPE 3.21, PBLUC_R_SQUARED 0.612, read-out: LUCIFERASE INFECTION ASSAY - IC50): 4.25 µM
Cc1ccc(C(=O)C(=O)Nc2cc(S(=O)(=O)N3CCCCC3)ccc2OC(C)C)cc1	–	> 10 µM	IC50 (FFLUC_HILL_SLOPE 11.8, FFLUC_R_SQUARED 0.613, read-out: LUCIFERASE INFECTION ASSAY - IC50): > 10 µM
O=C(NCCOc1cccc(Oc2ccccc2)c1)c1cccs1	–	> 9.72 µM	IC50 (HEPG2TOX_HILL_SLOPE 9.69, HEPG2TOX_R_SQUARED 0.418, PBLUC_HILL_SLOPE 2.28, PBLUC_R_SQUARED 0.595, read-out: LUCIFERASE INFECTION ASSAY - IC50): 4.13 µM
Fc1cccc(-c2cn3c(-c4ccc5ncccc5c4)cnc3cn2)c1	–	0.986 µM	IC50 (HEPG2TOX_HILL_SLOPE 1.51, HEPG2TOX_R_SQUARED 0.947, PBLUC_HILL_SLOPE 2.49, PBLUC_R_SQUARED 0.764, read-out: LUCIFERASE INFECTION ASSAY - IC50): 0.408 µM
CCCCCCCCSC(=S)c1c(C)[nH]n(-c2ccccc2)c1=O	–	> 9.1 µM	IC50 (PBLUC_HILL_SLOPE 1.5, PBLUC_R_SQUARED 0.801, read-out: LUCIFERASE INFECTION ASSAY - IC50): > 9.1 µM
O=C(Nc1nc2ccccc2[nH]1)c1cn(-c2ccccc2C(F)(F)F)nn1	–	> 10 µM	IC50 (FFLUC_HILL_SLOPE 2.58, FFLUC_R_SQUARED 0.587, PBLUC_HILL_SLOPE 2.16, PBLUC_R_SQUARED 0.829, read-out: LUCIFERASE INFECTION ASSAY - IC50): 5.53 µM
CSc1nnnn1-c1cccc(NC(=O)c2cc(-c3cc(C)oc3C)nc3c2cnn3C(C)C)c1	–	> 10 µM	IC50 (FFLUC_HILL_SLOPE 1.52, FFLUC_R_SQUARED 0.0983, PBLUC_HILL_SLOPE 1.97, PBLUC_R_SQUARED 0.288, read-out: LUCIFERASE INFECTION ASSAY - IC50): 5.3 µM
CC(C)(C)c1ccc(Oc2ccc(N)cn2)cc1 [LIMANTRAFIN]	–	> 13.6 µM	IC50 (PBLUC_HILL_SLOPE 0.71, PBLUC_R_SQUARED 0.895, read-out: LUCIFERASE INFECTION ASSAY - IC50): 1.19 µM
CN(Cc1cccc(Cl)c1Cl)C(C(=O)Nc1ccc(Cl)c(C(F)(F)F)c1)c1ccccc1 (centres undefined)	–	> 10 µM	IC50 (FFLUC_HILL_SLOPE 15.8, FFLUC_R_SQUARED 0.442, HEPG2TOX_HILL_SLOPE 1.06, HEPG2TOX_R_SQUARED 0.598, PBLUC_HILL_SLOPE 0.733, PBLUC_R_SQUARED 0.344, read-out: LUCIFERASE INFECTION ASSAY - IC50): 7.46 µM
S=C(N/N=C/c1ccc(Cl)cc1)Nc1cc(Cl)ccc1Cl	> 9.2 µM	> 9.2 µM	–
Cc1nc(=O)c2c(C)c(C(=O)OCC(=O)/C=C3\N(C)c4ccccc4C3(C)C)sc2[nH]1	–	> 10 µM	IC50 (HEPG2TOX_HILL_SLOPE 0.0151, HEPG2TOX_R_SQUARED 0.0709, PBLUC_HILL_SLOPE 3.19, PBLUC_R_SQUARED 0.563, read-out: LUCIFERASE INFECTION ASSAY - IC50): 6.65 µM
FC(F)(F)c1cc(N=C(C/C=N/c2cc(C(F)(F)F)cc(C(F)(F)F)c2)c2ccc(Cl)cc2)cc(C(F)(F)F)c1	–	0.673 µM	IC50 (FFLUC_HILL_SLOPE 1.3, FFLUC_R_SQUARED 0.132, PBLUC_HILL_SLOPE 15.7, PBLUC_R_SQUARED 0.5, read-out: LUCIFERASE INFECTION ASSAY - IC50): 0.585 µM
CCc1ccc(C(CNC(=O)c2ccc3c(=O)n(-c4ccccc4F)c(=S)[nH]c3c2)N(C)C)cc1 (centres undefined)	–	> 10 µM	IC50 (PBLUC_HILL_SLOPE 11.1, PBLUC_R_SQUARED 0.257, read-out: LUCIFERASE INFECTION ASSAY - IC50): 9.21 µM
O=S(=O)(C1=Cc2ccccc2CC1)N1CCOC2CCCCC21 (centres undefined)	> 10 µM	> 10 µM	–
CCOC(=O)/C(=N\Nc1cccc(C(F)(F)F)c1)NC(C)c1ccccc1 (centres undefined)	–	> 10 µM	IC50 (PBLUC_HILL_SLOPE 1.36, PBLUC_R_SQUARED 0.117, read-out: LUCIFERASE INFECTION ASSAY - IC50): > 10 µM
